Experimental data taken from article PMC8773409, “Tetrapeptides Modelled to the Androgen Binding Site of ZIP9 Stimulate Expression of Tight Junction Proteins and Tight Junction Formation in Sertoli Cells” (Biology, 2021).

Key:
ZIP9 = ZIP9 protein immunofluorescence after siRNA silencing; type: cell-based, rat; details: ZIP9-siRNA-treated 93RS2 cells; n = 30, means ± SEM
Experimental: (§1) For visualization by immunofluorescence, the medium containing the primary antibody was replaced with PBS containing 1% BSA, 0.3% Triton X-100, and the secondary antibody (goat anti-rabbit IgG diluted at 1:500 in 2% FCS, 0.1 Triton X-100 in PBS) labeled with AlexaFluor 488 (Life Technologies, Darmstadt, Germany). This medium was removed by aspiration after 1 h at room temperature and cells were washed in PBS 3 times. All incubation steps with UV-sensitive reagents were carried out in the dark. An inverse Olympus IX81 microscope equipped with the corresponding fluorescence system (Olympus, Hamburg, Germany) was used to acquire images.
(§2) Fluorescence was measured according to the instructions of the ImageJ software program (freely available at http://rsbweb.nih.gov/ij/, accessed on 23 December 2021) according to the protocol provided (http://www.slu.se/PageFiles/388774/Pacho%20ImageJ¬¬%20-measuring-cell-fluo¬rescence.pdf, accessed on 23 December 2021). Only green fluorescence was considered. The fluorescence of 3 × 25 cells closest to the diagonals of photomicrographs from 3 independent experiments was considered for statistical analysis. […]
A total of 6 × 10^4 93RS2 cells were cultured in 2-cm wells of a 6-well plate for 24 h. […] The concentration of the extracted mRNA was quantified by the NanodropTM One spectrophotometer (Thermo Fisher Scientific, Schwerte, Germany). […]

ZIP9 mRNA = assay: RT-PCR of ZIP9 mRNA after siRNA silencing; type: cell-based, rat; details: ZIP9-siRNA-treated 93RS2 cells
Experimental: A total of 6 × 10^4 93RS2 cells were cultured in 2-cm wells of a 6-well plate for 24 h. Thereafter, cells were treated for 48 h either with ZIP9-specific siRNA (ZIP9-siRNA; 5′GGAUUAAGUAAGAGCAGUAtt3′ and 5′UACUGCUCUUACUUAAUCCta3′) to silence ZIP9 expression or with an appropriate negative control siRNA (nc-siRNA), as described previously. ZIP9-siRNA and nc-siRNA were part of the kit Silencer® Select Pre-designed siRNA, provided by Invitrogen (Thermo Fisher Scientific, Schwerte, Germany). After the siRNA treatment, RNeasy® Mini Kit (Qiagen GmbH, Hilden, Germany) was used to isolate mRNA. The concentration of the extracted mRNA was quantified by the NanodropTM One spectrophotometer (Thermo Fisher Scientific, Schwerte, Germany). Samples were measured in duplicate and the average values were used.
RT-PCR was applied in order to assess the success of silencing ZIP9 expression by siRNA. mRNA that had been isolated from cells treated with either nc-siRNA or ZIP9-specific siRNA was processed to cDNA using the Reverse Transcription System (Promega GmbH, Mannheim, Germany) according to the protocol of the provider. A total of 1 µg cDNA, quantified by the NanodropTM One spectrophotometer, was used in the PCR-Master-Mix ready-to-load (Bio&SELL GmbH, Feucht, Germany) to detect ZIP9-specific cDNA. […]

[1] = tested on: Erk1/2 phosphorylation (via ZIP9) in 93RS2 cells; assay: Western blot of phospho-Erk1/2 in 93RS2 Sertoli cells; type: cell-based, rat
Experimental: (§3) The medium was replaced every two days.
(§4) A total of 1 × 10^5 93RS2 cells were grown in 10-cm culture dishes as described above. Cells were then incubated for 24 h with 1% FBS before treatment with various concentrations of the peptides dissolved in medium or testosterone dissolved in ethanol; equal amounts of ethanol were also added to the peptide-treated cells and to control incubations. […] After centrifugation of the lysates at 4 °C for 10 min at 13,000× g, the protein concentration in the supernatants was determined using a bicinchoninic acid (BCA) protein assay reagent kit (Pierce, Rockford, IL, USA) with inclusion of the lysis buffer in the standard curve.
(§5) For Western blotting, 10 µg of protein from cell lysates was separated by SDS-PAGE on slab gels containing 10% acrylamide and 0.3% N,N′-methylene-bis-acrylamide. […] The resulting chemiluminescence was recorded by exposure to film, which was analyzed with the software program ImageJ (freely available at http://rsbweb.nih.gov/ij/ (accessed on 31 December 2021)). Loading differences in the various Western blots were corrected by taking into consideration the optical density of bands corresponding to unphosphorylated Erk1/2 bands or total actin detected in Western blots that were run in parallel. […]

[2] = tested on: CREB/ATF-1 phosphorylation (via ZIP9) in 93RS2 cells; assay: Western blot of phospho-CREB/phospho-ATF-1 in 93RS2 Sertoli cells; type: cell-based, rat
Experimental: as §3
as §4, with “incubations. After 30 min of incubation the medium was removed by aspiration, and cells were washed twice with ice-cold PBS (without Ca^2+ or Mg^2+; Thermo Fisher Scientific, Darmstadt, Germany) and then lysed in 400 µL of a commercially available cell lysis buffer (Cell Signaling Technology, Frankfurt, Germany) according to the protocol of the provider. Immediately before use, […], 1× protease inhibitor cocktail (Roche, Mannheim, Germany), and 2 µg/mL pepstatin were added to the lysis buffer. All lysis steps were carried out on ice.” for “incubations.”
as §5
Data were analyzed by GraphPad Prism4 software and by applying either the unpaired t-test with Welch’s corrections or one-way ANOVA with repeated measures and Dunnett´s comparison of all data to the control. […]

[3] = tested on: Erk1/2 phosphorylation in 93RS2 cells; assay: Immunofluorescence of phospho-Erk1/2 in 93RS2 cells; type: cell-based, rat; details: 10 nM testosterone or 10 µM peptide, 30 min, n = 3 × 25
Experimental: as §3
(§6) Each chamber of 4-chamber slides was plated with 1 × 10^4 93RS2 cells and cultured as described above to approximately 80% confluence. Incubation was then carried out with either 10 nM testosterone or 10 µM of each of the peptides or with vehicle only (control). The medium was removed by aspiration after 30 min, and cells were fixed for 15 min in absolute methanol containing DAPI (4′,6-diamidino-2-phenylindole). After aspirating the fixative, cells were treated with blocking solution (3% BSA and 0.3% Triton X-100 in PBS) for 1 h. […]
as §1, with “This medium was removed by aspiration after 1 h at room temperature and cells were washed in PBS 3 times. All incubation steps with UV-sensitive reagents were carried out in the dark.” left out
as §2, with “considered.” for “considered. The fluorescence of 3 × 25 cells closest to the diagonals of photomicrographs from 3 independent experiments was considered for statistical analysis.”

[4] = tested on: CREB/ATF-1 phosphorylation in 93RS2 cells; assay: Immunofluorescence of phospho-CREB/phospho-ATF-1 in 93RS2 cells; type: cell-based, rat; details: 10 nM testosterone or 10 µM peptide, 30 min
Experimental: as §3, §6
as §1, with “This medium was removed by aspiration after 1 h at room temperature and cells were washed in PBS 3 times. All incubation steps with UV-sensitive reagents were carried out in the dark.” left out
as §2, with “considered.” for “considered. The fluorescence of 3 × 25 cells closest to the diagonals of photomicrographs from 3 independent experiments was considered for statistical analysis.”

[5] = tested on: ZO-1 expression in 93RS2 cells; assay: Immunofluorescence of ZO-1 in 93RS2 cells; type: cell-based, rat; details: 10 nM testosterone or 10 µM peptide, 24 h
claudin-1 in 93RS2 cells = assay: Immunofluorescence of claudin-1 in 93RS2 cells; type: cell-based, rat; details: 10 nM testosterone or 10 µM peptide, 24 h
claudin-5 in 93RS2 cells = assay: Immunofluorescence of claudin-5 in 93RS2 cells; type: cell-based, rat; details: 10 nM testosterone or 10 µM peptide, 24 h
[6] = tested on: 93RS2 Sertoli cells (tight junction formation); assay: Transepithelial electrical resistance (TER) across 93RS2 monolayers; type: cell-based, rat; details: ZIP9-siRNA; 10 nM testosterone or 10 µM peptides; up to 72 h
Experimental: as §3
A total of 3 × 10^4 cells were added to 0.4-µm pore ThinCertsTM (Greiner Bio-one GmbH, Frickenhausen, Germany) arranged within 1-cm wells of a 24-well plate. Cells were cultured for 24 h. Stimulation was then carried out with either testosterone or peptides at concentrations of 0.1, 1, 10, or 100 nM (testosterone) or 0.1, 1, 10, or 100 µM (peptides). Control incubations received ethanol vehicle only. TER was determined after 0, 24, 48, and 72 h, with the first measurement being made immediately after addition of testosterone or peptides. Stimulants remained in the cell medium for the entire duration of the experiment, and during this time the medium was not renewed. A Millicell ERS-2 epithelial Volt-Ohm Meter (Merck Millipore, Darmstadt, Germany) was used to measure TER. Each experiment was repeated three times. Similar experiments were carried out after silencing expression of ZIP9 by siRNA.
Data were analyzed by GraphPad Prism4 software and by applying either the unpaired t-test with Welch’s corrections or one-way ANOVA with repeated measures and Dunnett´s comparison of all data to the control. Significance was accepted at p ≤ 0.05.

[7] = tested on: total Erk1/2 in 93RS2 cells; assay: Expression of total Erk1/2 in 93RS2 lysates; type: cell-based, rat; details: lysates of treated 93RS2 cells; data not shown
Experimental: as §4, with “incubations. After 30 min of incubation the medium was removed by aspiration, and cells were washed twice with ice-cold PBS (without Ca^2+ or Mg^2+; Thermo Fisher Scientific, Darmstadt, Germany) and then lysed in 400 µL of a commercially available cell lysis buffer (Cell Signaling Technology, Frankfurt, Germany) according to the protocol of the provider.” for “incubations.”
For Western blotting, 10 µg of protein from cell lysates was separated by SDS-PAGE on slab gels containing 10% acrylamide and 0.3% N,N′-methylene-bis-acrylamide. […] The resulting chemiluminescence was recorded by exposure to film, which was analyzed with the software program ImageJ (freely available at http://rsbweb.nih.gov/ij/ (accessed on 31 December 2021)). […]

[8] = tested on: claudin-1 and claudin-5 expression in rodent Sertoli cells; design: method as in PMID 27164415, PMID 12851029, PMID 20403878, doi:10.1093/biolreprod/83.s1.109; details: ref [6],[29],[34],[35]; cited from earlier work
[9] = tested on: androgen binding site of ZIP9 on 93RS2 cells; assay: Cell-surface labeling with testosterone-BSA-FITC (displacement); details: 20 min; for labeling of 93RS2 cells by fluorescent conjugate: 5 µM, room temperature, no competitor, ZIP9 expressed
Experimental: Cells were cultured in a humidified incubator (37 °C, 5% CO2) in 1:1 DMEM:Ham’s F-12 medium with L-glutamine supplemented with 10% (v/v) fetal bovine serum (FBS) and 1% (v/v) penicillin/streptomycin. The medium was replaced every two days.
A total of 93 RS2 cells were cultured at a density of 5 × 10^3 cells per well in 24-well plates as described above. After reaching about 80% confluence, the cells were treated with either 10 nM testosterone or 1 µM of each of the peptides for 1 h. Both peptide-treated cells and controls were also treated with ethanol vehicle at the same concentration as other plates of cells treated with testosterone dissolved in ethanol. […] After incubation for an additional 20 min at room temperature, the medium was aspirated and cells were fixed in 400 µL ice-cold methanol containing 20 ng of 4,6-diamino-2-phenylindole (DAPI) at room temperature. This solution was aspirated after 15 min and cells were washed with 700 μL PBS. Cell imaging was carried out in 400 µL PBS using an inverse Olympus IX81 microscope (Olympus, Hamburg, Germany).
In order to account for non-specific binding, cells were incubated for 20 min with 5 µM BSA-FITC (lacking the testosterone moiety) diluted in Tris-Buffer (pH 7.2) at room temperature. After washing twice with PBS and fixing in absolute methanol containing DAPI for 15 min, images were obtained as described above.

[10] = 30 min, T 0.1-100 nM, peptides 0.1-100 µM, Western blot

Molecule: 5′GGAUUAAGUAAGAGCAGUAtt3′ and 5′UACUGCUCUUACUUAAUCCta3′ (chain 1 GGAUUAAGUAAGAGCAGUATT; chain 2 UACUGCUCUUACUUAAUCCTA; siRNA; chemistry not fully specified) [ZIP9-siRNA, ZIP9-specific siRNA to silence ZIP9 expression]
- ZIP9-specific immunofluorescence remaining vs control conditions (ZIP9): 7.93 ± 1.1%
- presence of ZIP9-specific mRNA/cDNA vs nc-siRNA (ZIP9 mRNA): greatly reduced

Molecule: C[C@]12CC[C@H]3[C@@H](CCC4=CC(=O)CC[C@@]43C)[C@@H]1CC[C@@H]2O [testosterone]
- stimulation of Erk1/2 phosphorylation, in words [1, 10]: stimulated in a concentration-dependent manner the phosphorylation of Erk1/2
- EC50 ([1]; Rattus norvegicus, 0.5 h, read-out: EC50 for stimulation of Erk1/2 phosphorylation (approximate, Discussion)): ~500 pM
- stimulation of CREB/ATF-1 phosphorylation, in words [2, 10]: stimulate the phosphorylation of the transcription factors CREB and ATF-1
- EC50 ([2]; Rattus norvegicus, 0.5 h, read-out: EC50 for CREB and ATF-1 phosphorylation (approximate, Discussion)): ~500 pM
- concentration of maximum effect on CREB/ATF-1 phosphorylation ([2]; testosterone (Discussion)): 10 nM
- phosphorylation of Erk1/2 by immunofluorescence, ZIP9 silenced ([3]; ZIP9-siRNA-treated cells): abolished the stimulation of Erk1/2 phosphorylation
- phosphorylation of Erk1/2 by immunofluorescence, ZIP9 expressed ([3]; nc-siRNA-treated cells): triggered the phosphorylation of Erk1/2
- phosphorylation of CREB/ATF-1 by immunofluorescence, ZIP9 silenced ([4]; ZIP9-siRNA-treated cells): complete loss of the stimulatory effect
- phosphorylation of CREB/ATF-1 within nuclei by immunofluorescence, ZIP9 expressed ([4]; nc-siRNA-treated cells): stimulated phosphorylation of the transcription factors within the nuclei
- ZO-1 expression, ZIP9 silenced ([5]; ZIP9-siRNA): did not respond
- ZO-1 expression, ZIP9 expressed ([5]; nc-siRNA): stimulated the expression of zona occludens (ZO-1)
- claudin-1 distribution, ZIP9 silenced (claudin-1 in 93RS2 cells; ZIP9-siRNA): This re-distribution was not observed
- claudin-1 distribution, ZIP9 expressed (claudin-1 in 93RS2 cells; nc-siRNA): triggered re-distribution of claudin-1 from the cytosol to the membranes or to the nuclei
- claudin-1 expression level (claudin-1 in 93RS2 cells; nc-siRNA): do not seem to influence the expression level of claudin-1
- claudin-5 expression and localization, ZIP9 silenced (claudin-5 in 93RS2 cells; ZIP9-siRNA): Only basal levels of Claudin-5 are detected
- claudin-5 expression, ZIP9 expressed (claudin-5 in 93RS2 cells; nc-siRNA): stimulated the expression of claudin-5
- TER increase, ZIP9 silenced [6]: failed to stimulate TER increase
- effect on expression of total Erk1/2 [7]: without affecting the expression of the enzyme protein
- claudin-1 and claudin-5 expression [8]: stimulate claudin-1 and claudin-5 expression

Molecule: BSA-FITC: BSA-FITC (lacking the testosterone moiety)
- labeling of 93RS2 cells by fluorescent conjugate [9]: Relatively low signals of green fluorescence

Molecule: Testosterone 3-(O-carboxymethyl)oxime:BSA-fluorescein isothiocyanate [T-BSA-FITC]
- labeling of 93RS2 cells by fluorescent conjugate [9]: uniform green labeling of the extracellular surface of the cells
- labeling of cell membranes by testosterone-BSA-FITC, ZIP9 silenced ([9]; ZIP9-siRNA-treated cells, 5 µM T-BSA-FITC): completely prevented
